Molecules are shown by their SMILES. Values joined by “and” are separate entries in the source; they are usually repeats but may differ in a detail not shown here. Identical values can stand only once.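 Assay format: 96-well plates, 48-hour exposure. Abbreviation: GI50, concentration required for 50% inhibition of growth. TGI: total growth inhibition.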

The test relates to MDA-MB-468 breast. As to the kind of experiment: growth of human tumour cells (NCI), 48 h.
On to `N#CC1=C(N)Oc2c(sc3c(F)cccc23)C1c1ccc(Cl)cc1` (configuration not stated), for which the GI50 is 3180 nM and the TGI was 12100 nM.
With `CC([C@H]1CCC2C3CCC4C(=O)C(NC=O)=CC[C@]4(C)C3CC[C@@]21C)N(C)C` (some centres not stated), the GI50 was 1900 nM and the TGI came to 6260 nM.
Taken in the same sequence, the figures for `COc1cccc(-n2cnc3c(N/N=C/c4ccncc4)ncnc32)c1` were 6400 nM and over 25000 nM.
Taken in the same sequence, the figures for `O=C(NCCc1ccccc1)C(c1csc2ccccc12)N(C(=O)CCl)c1ccc(-c2cnco2)cc1` (configuration not stated) were 812 nM and 2600 nM.
On to `O=C1/C(=C/c2ccc(F)cc2)CN(Cc2cn(CCNc3ccnc4cc(Cl)ccc34)nn2)C/C1=C\c1ccc(F)cc1`, for which the GI50 was 1390 nM and the TGI came out at 3130 nM.
Taken in the same sequence, the figures for `Nc1ncnc2c1ncn2C1OC(CO)C(O)C1O` (configuration not stated) were 2140 nM and 5410 nM.
Taken in the same sequence, the figures for `C=CC[n+]1c(/C=C2\Sc3ccccc3N2C)sc(-c2ccccc2)c1-c1ccccc1` were 251 nM and 911 nM.
Taken in the same sequence, the figures for `COc1ccc(CNCCN2C(=O)c3ccc4c5c(ccc(c35)C2=O)C(=O)N(CCNCc2ccc(OC)cc2)C4=O)cc1` were 191 nM and 482 nM.
With `CC(=O)c1c[nH]c2ccc(-c3ccnc(Nc4ccc(NC(=O)c5cccc(F)c5)c(CN5CCOCC5)c4)n3)cc12`, the GI50 is 172 nM and the TGI is 582 nM.
For `CCCCCCCC(=O)SCC/C=C/[C@@H]1CC(=O)NCc2cccc(n2)CN(Cc2ccc(Cl)cc2)CC(=O)N[C@@H](C(C)C)C(=O)O1`, the GI50 was 13800 nM and the TGI is over 100000 nM.
Taken in the same sequence, the figures for `COC(=O)c1ccc2c(c1)[n+](=O)c(C(C)=O)c(C(F)(F)F)n2[O-]` were 1560 nM and 3040 nM.
Taken in the same sequence, the figures for `Oc1ccc(Br)cc1CN1CCN(Cc2ccc(Cl)cc2)CC1` were 5100 nM and 55800 nM.
For the compound `CCSc1sc(-c2ccc(C)cc2)nc1[P+](c1ccccc1)(c1ccccc1)c1ccccc1`, the GI50 was 219 nM and the TGI amounted to 731 nM.
As to `COc1cc(C2C3=C(COC3=O)N(CCO)c3cc4c(cc32)OCCO4)cc(OC)c1O` (configuration not stated), the GI50 is 1010 nM and the TGI was over 11600 nM.
Taken in the same sequence, the figures for `CN1CCN(c2nc(NCCNc3ccnc4cc(Cl)ccc34)c3ccccc3n2)CC1` were 1460 nM and 4640 nM.
Taken in the same sequence, the figures for `C=C1c2c(C)nn(-c3ccccc3)c2N(C)C23C[C@@H]1C1(C)c4c(C)nn(-c5ccccc5)c4N(C)C(C)(C[C@H]12)C3` (some centres not stated) were 2900 nM and 27900 nM.
With `CN1CCN(c2nc(C3=C(c4c[nH]c5ccccc45)C(=O)NC3=O)c3ccccc3n2)CC1`, the GI50 is 13400 nM and 15000 nM; the TGI is 43600 nM and 30400 nM.
`COc1cc(OC)cc(-c2n[nH]nc2-c2ccc3c(c2)OCO3)c1`: the GI50 is 226 nM and the TGI stood at 25800 nM.
Taken in the same sequence, the figures for `COc1ccc(C2CC(c3cccc(Nc4ccnc5cc(Cl)ccc45)c3)=NN2c2ccccc2)cc1` (configuration not stated) were 2130 nM and 34300 nM.
As for `COc1ccc(/C(C#N)=C/c2nc3c(N4CCOCC4)nc(Cl)nc3n2C)cc1OC`, the GI50 is 20.4 nM and the TGI is 1340 nM.
Regarding `N=C(N)c1ccc(-c2ccc(-c3ccco3)o2)cc1`, the GI50 was 1390 nM and the TGI is 3790 nM.
For the compound `COc1cc(C2CC(c3ccc(C)cc3)=NN2C(C)=O)ccc1Oc1ccnc2cc(Cl)ccc12` (configuration not stated), the GI50 was 20700 nM and the TGI was over 100000 nM.
On to `O=c1cc(N2CCOCC2)oc2c(-c3ccccc3)cccc12`, for which the GI50 was 2850 nM and the TGI turned out to be 18000 nM.
In the case of `O=C(CCCCCn1c2ccccc2c2c3c(c4c5ccccc5[nH]c4c21)C(=O)N(O)C3=O)N1CCOCC1`, the GI50 is 2710 nM and the TGI is 5900 nM.
In the case of `CC(C)=CCNc1ncnc2c1ncn2C1OC(COP(=O)(O)O)C(O)C1O` (configuration not stated), the GI50 is 2010 nM and the TGI turned out to be 5400 nM.
`Cc1cc(C)c2nc(Nc3nc(C)c(C)c(=O)[nH]3)nc(C)c2c1`: the GI50 was 2130 nM and the TGI came out at 5890 nM.

For the origin of these results see PubChem BioAssay (NCI).
